US20250145619A1, “KHK INHIBITOR, PREPARATION METHOD THEREFOR AND USE THEREOF” (YOUNGENE THERAPEUTICS CO., LTD, priority 2022, published 2025)

target: KHK—C (Homo sapiens (Human), UniProt P50053); assay: KHK—C ADP-Glo kinase inhibitory activity assay; format: biochemical; settings: 1 nM KHK—C, 200 μM D-Fructose, 100 μM ATP, ADP-Glo luminescence
Source text: (KHK—C ADP-Glo Kinase Inhibitory Activity Assay)
Y=Bottom+(Top−Bottom)/(1+10^((LogIC50−X)×HillSlope)) • X: Log value of compound concentration • Y: Inhibition ratio (%)
[formula] • Negative control: DMSO

Sequence of KHK—C (P50053 whole entry): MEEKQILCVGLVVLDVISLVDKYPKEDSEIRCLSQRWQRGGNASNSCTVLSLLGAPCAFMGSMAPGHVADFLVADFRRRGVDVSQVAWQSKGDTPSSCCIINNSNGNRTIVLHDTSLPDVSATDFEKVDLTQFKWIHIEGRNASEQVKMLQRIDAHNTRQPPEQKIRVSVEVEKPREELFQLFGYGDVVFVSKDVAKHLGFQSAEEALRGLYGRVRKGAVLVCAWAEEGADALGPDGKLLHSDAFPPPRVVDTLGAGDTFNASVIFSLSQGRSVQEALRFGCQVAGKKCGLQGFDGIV

IC50	SMILES
27.9 nM	C[C@H]1CCN1c1nc(N2CC3(CC(C(=O)O)C3)C2)cc(C(F)(F)F)c1C#N [Example 1, (S)-2-(5-cyano-6-(2-methylazetidine-1-yl)-4-(trifluoromethyl)pyridin-2-yl)-2-azaspiro[3.3]heptan-6-carboxylic acid]
143 nM	C[C@H]1CCN1c1nc(N2CC3(CCC(C(=O)O)CC3)C2)cc(C(F)(F)F)c1C#N [Example 2, (S)-2-(5-cyano-6-(2-methylazetidine-1-yl)-4-(trifluoromethyl)pyridin-2-yl)-2-azaspiro[3.5]nonan-7-carboxylic acid]
115 nM	C[C@H]1CCN1c1nc(N2CCC3(CC2)CC(C(=O)O)C3)cc(C(F)(F)F)c1C#N [Example 3, (S)-7-(5-cyano-6-(2-methylazetidine-1-yl)-4-(trifluoromethyl)pyridin-2-yl)-7-azaspiro[3.5]nonan-2-carboxylic acid]
198 nM	C[C@H]1CCN1c1nc(N2CC3(C2)CS(=O)(=O)C3)cc(C(F)(F)F)c1C#N [Example 4, (S)-6-(2,2-dioxa-2-thioxa-6-azaspiro[3.3]heptan-6-yl)-2-(2-methylazetidine-1-yl)-4-(trifluoromethyl)nicotinonitrile]
110 nM	C[C@H]1[C@H](O)CN1c1nc(N2CC3(CC(C(=O)O)C3)C2)cc(C(F)(F)F)c1C#N [Example 5, 2-(5-cyano-6-((2S,3R)-3-hydroxy-2-methylazetidine-1-yl)-4-(trifluoromethyl)pyridin-2-yl)-2-azaspiro[3.3]heptan-6-carboxylic acid]
36 nM	C[C@H]1CCN1c1nc(N2CC3(CCC(C(=O)O)C3)C2)cc(C(F)(F)F)c1C#N (stereo partly drawn) [Example 7, 2-(5-cyano-6-((S)-2-methylazetidine-1-yl)-4-(trifluoromethyl)pyridin-2-yl)-2-azaspiro[3.4]octan-6-carboxylic acid]
0.17 nM	C[C@H]1CCN1c1nc(N2C[C@@H]3[C@@H](CC(=O)O)[C@@H]3C2)cc(C(F)(F)F)c1C#N [Example 8, 2-((1R,5S,6R)-3-(5-cyano-6-((S)-2-methylazetidine-1-yl)-4-(trifluoromethyl)pyridin-2-yl)-3-azabicyclo[3.1.0]hexan-6-yl)acetic acid]
27 nM	C[C@H]1CCN1c1nc(N2CC3(CC(CC(=O)O)C3)C2)cc(C(F)(F)F)c1C#N [Example 9, (S)-2-(2-(5-cyano-6-(2-methylazetidine-1-yl)-4-(trifluoromethyl)pyridin-2-yl)-2-azaspiro[3.3]heptan-6-yl)acetic acid]
12.6 nM	CC(C(=O)O)[C@H]1[C@@H]2CN(c3cc(C(F)(F)F)c(C#N)c(N4CC[C@@H]4C)n3)C[C@@H]21 (stereo partly drawn) [Example 10, (R)-2-((1R,5S,6R)-3-(5-cyano-6-((S)-2-methylazetidine-1-yl)-4-(trifluoromethyl)pyridin-2-yl)-3-azabicyclo[3.1.0]hexan-6-yl)propionic acid]
12.6 nM	C[C@H]1CCN1c1nc(N2CCC(CCC(=O)O)C2)cc(C(F)(F)F)c1C#N (stereo partly drawn) [Example 11, 3-(1-(5-cyano-6-((S)-2-methylazetidine-1-yl)-4-(trifluoromethyl)pyridin-2-yl)pyrrolidin-3-yl)propionic acid]
6300 nM	C[C@H]1CCN1c1nc(N2CCC3(CC(C(=O)O)C3)C2)cc(C(F)(F)F)c1C(N)=O (stereo partly drawn) [Example 16, (S)-6-(5-aminoformyl-6-(2-methylazetidine-1-yl)-4-(trifluoromethyl)pyridin-2-yl)-6-azaspiro[3.4]octan-2-carboxylic acid]
100 nM	C[C@@H](C(=O)O)[C@H]1[C@@H]2CN(c3cc(C(F)(F)F)c(C#N)c(N4CC[C@@H]4C)n3)C[C@@H]21 [Example 18, (R)-2-((1R,5S,6R)-3-(5-cyano-6-((S)-2-methylazetidine-1-yl)-4-(trifluoromethyl)pyridin-2-yl)-3-azabicyclo[3.1.0]hexan-6-yl)propionic acid]
24.7 nM	C[C@H](C(=O)O)[C@H]1[C@@H]2CN(c3cc(C(F)(F)F)c(C#N)c(N4CC[C@@H]4C)n3)C[C@@H]21 [Example 19, (S)-2-((1R,5S,6R)-3-(5-cyano-6-((S)-2-methylazetidine-1-yl)-4-(trifluoromethyl)pyridin-2-yl)-3-azabicyclo[3.1.0]hexan-6-yl)propionic acid]
15.4 nM	C[C@H]1CCN1c1nc(N2CC[C@H](CCC(=O)O)C2)cc(C(F)(F)F)c1C#N [Example 20, 3-((S)-1-(5-cyano-6-((S)-2-methylazetidine-1-yl)-4-(trifluoromethyl)pyridin-2-yl)pyrrolidin-3-yl)propionic acid]
81.2 nM	C[C@H]1CCN1c1nc(N2CC[C@@H](CCC(=O)O)C2)cc(C(F)(F)F)c1C#N [Example 21, 3-((R)-1-(5-cyano-6-((S)-2-methylazetidine-1-yl)-4-(trifluoromethyl)pyridin-2-yl)pyrrolidin-3-yl)propionic acid]
47 nM	C[C@H]1CCN1c1nc(N2CC(CC(=O)O)C2)c2c(n1)C(F)(F)CC2 [Example 25, (S)-2-(1-(7,7-difluoro-2-(2-methylazetidine-1-yl)-6,7-dihydro-5H-cyclopentadiene[d]pyrimidin-4-yl)azetidine-3-yl)acetic acid]
42.9 nM	C[C@H]1CCN1c1nc(N2CCC3(CC(C(=O)O)C3)C2)c2c(n1)C(F)(F)CC2 (stereo partly drawn) [Example 26, (S)-6-(7,7-difluoro-2-(2-methylazetidine-1-yl)-6,7-dihydro-5H-cyclopentadiene[d]pyrimidin-4-yl)-6-azaspiro[3.4]octan-2-carboxylic acid]
59 nM	C[C@H]1CCN1c1nc(N2CC3(CCC(C(=O)O)C3)C2)c2c(n1)C(F)(F)CC2 (stereo partly drawn) [Example 27, 2-(7,7-difluoro-2-((S)-2-methylazetidine-1-yl)-6,7-dihydro-5H-cyclopentadiene[d]pyrimidin-4-yl)-2-azaspiro[3.4]octan-6-carboxylic acid]
> 10000 nM	CC(=O)N[C@@H]1CN(c2nc(N3CC4(CC(C(=O)O)C4)C3)c3c(n2)C(F)(F)CC3)[C@H]1C [Example 28, 2-(2-((2S,3R)-3-acetamido-2-methylazetidine-1-yl)-7,7-difluoro-6,7-dihydro-5H-cyclopentadiene[d]pyrimidin-4-yl)-2-azaspiro[3.3]heptan-6-carboxylic acid]
> 10000 nM	CN[C@@H]1CN(c2nc(N3CC4(CC(C(=O)O)C4)C3)c3c(n2)C(F)(F)CC3)[C@H]1C [Example 29, 2-(7,7-difluoro-2-((2S,3R)-2-methyl-3-(methylamino)azetidine-1-yl)-6,7-dihydro-5H-cyclopentadiene[d]pyrimidin-4-yl)-2-azaspiro[3.3]heptan-6-carboxylic acid]
> 10000 nM	CO[C@@H]1CN(c2nc(N3CC4(CC(C(=O)O)C4)C3)c3c(n2)C(F)(F)CC3)[C@H]1C [Example 30, 2-(7,7-difluoro-2-((2S,3R)-3-methoxy-2-methylazetidine-1-yl)-6,7-dihydro-5H-cyclopentadiene[d]pyrimidin-4-yl)-2-azaspiro[3.3]heptan-6-carboxylic acid]
134 nM	C[C@H]1[C@H](O)CN1c1nc(N2CC3(CC(C(=O)O)C3)C2)c2c(n1)C(F)(F)CC2 [Example 31, 2-(7,7-difluoro-2-((2S,3R)-3-hydroxy-2-methylazetidine-1-yl)-6,7-dihydro-5H-cyclopentadiene[d]pyrimidin-4-yl)-2-azaspiro[3.3]heptan-6-carboxylic acid]
10.4 nM	C[C@H]1CCN1c1nc(N2CCC(CC(=O)O)C2)c2c(n1)C(F)(F)CC2 (stereo partly drawn) [Example 32, 2-(1-(7,7-difluoro-2-((S)-2-methylazetidine-1-yl)-6,7-dihydro-5H-cyclopentadiene[d]pyrimidin-4-yl)pyrrolidin-3-yl)acetic acid]
52.8 nM	C[C@H]1CCN1c1nc(N2CCC(CC(=O)O)CC2)c2c(n1)C(F)(F)CC2 [Example 33, (S)-2-(1-(7,7-difluoro-2-(2-methylazetidine-1-yl)-6,7-dihydro-5H-cyclopentadiene[d]pyrimidin-4-yl)piperidin-4-yl)acetic acid]
40 nM	C[C@H]1CCN1c1nc(N2CC3(CC(CC(=O)O)C3)C2)c2c(n1)C(F)(F)CC2 [Example 34, (S)-2-(2-(7,7-difluoro-2-(2-methylazetidine-1-yl)-6,7-dihydro-5H-cyclopentadiene[d]pyrimidin-4-yl)-2-azaspiro[3.3]heptan-6-yl)acetic acid]
142 nM	C[C@H]1CCN1c1nc(N2CC3CN(CC(=O)O)CC3C2)c2c(n1)C(F)(F)CC2 (stereo partly drawn) [Example 35, 2-(5-(7,7-difluoro-2-((S)-2-methylazetidine-1-yl)-6,7-dihydro-5H-cyclopentadiene[c]pyrimidin-4-yl)hexahydropyrrolo[3,4-c]pyrrolo-2(1H)-yl)acetic acid]
13.6 nM	C[C@H]1CCN1c1nc(N2CC[C@H](CC(=O)O)C2)c2c(n1)C(F)(F)CC2 [Example 36, 2-((R)-1-(7,7-difluoro-2-((S)-2-methylazetidine-1-yl)-6,7-dihydro-5H-cyclopentadiene[d]pyrimidin-4-yl)pyrrolidin-3-yl)acetic acid]

SMILES	IC50
C[C@H]1CCN1c1nc(N2CC3(CN(CC(=O)O)C3)C2)cc(C(F)(F)F)c1C#N [Example 15, (S)-2-(6-(5-cyano-6-(2-methylazetidine-1-yl)-4-(trifluoromethyl)pyridin-2-yl)-2,6-diazaspiro[3.3]heptan-2-yl)acetic acid]	212 nM
C[C@H]1CCN1c1nc(N2CC3(C2)CS(=O)(=O)C3)cc(C(F)(F)F)c1C(N)=O [Example 17, (S)-6-(2,2-dioxa-2-thioxa-6-azaspiro[3.3]heptan-6-yl)-2-(2-methylazetidine-1-yl)-4-(trifluoromethyl)nicotinamide]	> 10000 nM
C[C@H]1CCN1c1nc(N2CC3(CC(C(=O)O)C3)C2)c2c(n1)C(F)(F)CC2 [Example 24, (S)-2-(7,7-difluoro-2-(2-methylazetidine-1-yl)-6,7-dihydro-5H-cyclopentadiene[d]pyrimidin-4-yl)-2-azaspiro[3.3]heptan-6-carboxylic acid]	78.3 nM
